Results: patent US20180311217A1, “METHODS OF TREATMENT AND COMPOSITIONS WITH XANTHINE OXIDASE INHIBITORS” (Takeda Pharmaceuticals U.S.A., Inc., priority 2013, published 2018)
Like-named read-outs stand apart in the source and are kept apart here.

How the values were obtained:
[1] = Study TMX-99-001: febuxostat plasma pharmacokinetics; type: in vivo, human; details: human, plasma, oral, mean; for partial AUC from 0 to 4 hours: read-out: AUC0-4
[2] = test system: hyperuricemic gout subjects with moderate to severe renal impairment; experiment: Example 1 study: serum creatinine (sCr); type: in vivo, human; details: for mean sCr: no prior and/or current use ARB or ACEi; for changes in sCr: prior and/or current use of ACEi; for changes in sCr / changes in mean sCr levels: Months 6 and 12; for change in sCr over time compared with placebo: sCr 2.0 to <2.5 mg/dL at Baseline; for change in sCr over time compared to placebo: sUA of 9.0 to <10.0 mg/dL at Baseline
Protocol: Efficacy of febuxostat was assessed by measurement of serum creatinine (and calculation of eGFR), clinic systolic and diastolic BP, and sUA levels. Serum samples for the analysis of serum creatinine (and calculation of eGFR) were collected at the time points stipulated in Schedule of Study Procedures (Table 1.). The primary efficacy variable was the change from Baseline to Month 12 in sCr. Summary statistics were presented for Baseline, postbaseline, and change from Baseline by treatment group at each visit. The primary analysis was based on the analysis of covariance (ANCOVA) model for change from baseline to Month 12 for the primary efficacy variable. The model included treatment as a factor, and the baseline sCr and prior use of an ARB or an ACEi (subjects taking an ARB or an ACEi or not taking an ARB or an ACEi) as covariates.

[3] = oral administration; cited from earlier work

## Cc1nc(-c2ccc(OCC(C)C)c(C#N)c2)sc1C(=O)O [Febuxostat, 2-[3-cyano-4-(2-methylpropoxy)phenyl]-4-methylthiazole-5-carboxylic acid]
[1]; 30 mg, IR 30 mg single dose
  MRT inf: 4.99 h
  partial AUC from 0 to 4 hours: 1900 ng·h/mL
[1]; 30 mg, IR 30 mg single dose, read-out: AUC4-24
  AUC: 629 ng·h/mL
[1]; 30 mg, IR 30 mg single dose, read-out: AUC24
  AUC: 2520 ng·h/mL
[1]; 40 mg, IR 40 mg single dose
  MRT inf: 4.54 h
  partial AUC from 0 to 4 hours: 3350 ng·h/mL
[1]; 50 mg, IR 50 mg single dose
  MRT inf: 5 h
[1]; 50 mg, IR 50 mg single dose, read-out: AUC4-24
  AUC: 1260 ng·h/mL
[1]; 70 mg, IR 70 mg single dose
  MRT inf: 5 h
  partial AUC from 0 to 4 hours: 5280 ng·h/mL
[1]; 70 mg, IR 70 mg single dose, read-out: AUC4-24
  AUC: 1670 ng·h/mL
[1]; 90 mg, IR 90 mg single dose
  MRT inf: 5.81 h
[1]; 90 mg, IR 90 mg single dose, read-out: AUC4-24
  AUC: 2500 ng·h/mL
[1]; 90 mg, IR 90 mg single dose, read-out: AUC24
  AUC: 9390 ng·h/mL
[1]; 120 mg, IR 120 mg single dose
  MRT inf: 5.43 h
  partial AUC from 0 to 4 hours: 8590 ng·h/mL
[1]; 120 mg, IR 120 mg single dose, read-out: AUC4-24
  AUC: 3370 ng·h/mL
[1]; 160 mg, IR 160 mg single dose
  MRT inf: 4.65 h
  partial AUC from 0 to 4 hours: 16400 ng·h/mL
[1]; 160 mg, IR 160 mg single dose, read-out: AUC4-24
  AUC: 5840 ng·h/mL
[1]; 180 mg, IR 180 mg single dose
  MRT inf: 5.53 h
  partial AUC from 0 to 4 hours: 16800 ng·h/mL
[1]; 180 mg, IR 180 mg single dose, read-out: AUC4-24
  AUC: 7150 ng·h/mL
[1]; 240 mg, IR 240 mg single dose
  MRT inf: 4.32 h
  partial AUC from 0 to 4 hours: 25100 ng·h/mL
[1]; 240 mg, IR 240 mg single dose, read-out: AUC4-24
  AUC: 9900 ng·h/mL
[2]; 30 mg BID
  renal function preservation compared with febuxostat 40/80 mg QD: better renal function preservation
  mean sCr: increased
  changes in sCr: slight improvements
  change in sCr over time compared with placebo: small favorable trend
  change in sCr over time compared to placebo: small favorable trend
[2]; 30 mg BID, Day 14
  Serum Creatinine, Change from Baseline: 0.09 mg/dL
  Serum Creatinine, Mean: 2.18 mg/dL
[2]; 30 mg BID, Month 1
  Serum Creatinine, Change from Baseline: 0.13 mg/dL
  Serum Creatinine, Mean: 2.23 mg/dL
[2]; 30 mg BID, Month 3
  Serum Creatinine, Change from Baseline: 0.09 mg/dL
  Serum Creatinine, Mean: 2.18 mg/dL
[2]; 30 mg BID, Month 6
  Serum Creatinine, Change from Baseline: 0.03 mg/dL
  Serum Creatinine, Mean: 2.12 mg/dL
  Serum creatinine change from Baseline, LS mean: 0.04 mg/dL
  Serum creatinine change from Baseline, LS mean difference from placebo group: -0.11 mg/dL
[2]; 30 mg BID, Month 9
  Serum Creatinine, Change from Baseline: 0.11 mg/dL
  Serum Creatinine, Mean: 2.21 mg/dL
[2]; 30 mg BID, Month 12
  Serum Creatinine, Change from Baseline: 0.04 mg/dL
  Serum Creatinine, Mean: 2.13 mg/dL
  Serum creatinine change from Baseline, LS mean: 0.09 mg/dL
  Serum creatinine change from Baseline, LS mean difference from placebo group: -0.10 mg/dL
[2]; 30 mg BID, prior and/or current use of ARB
  changes in mean sCr levels: minimal changes or a slight improvement
[2]; 30 mg BID, subjects with moderate renal impairment
  changes in mean sCr levels: minimal changes
[2]; 40/80 mg QD, Day 14
  Serum Creatinine, Change from Baseline: 0.08 mg/dL
  Serum Creatinine, Mean: 2.30 mg/dL
[2]; 40/80 mg QD, Month 1
  Serum Creatinine, Change from Baseline: 0.05 mg/dL
  Serum Creatinine, Mean: 2.25 mg/dL
[2]; 40/80 mg QD, Month 3
  Serum Creatinine, Change from Baseline: 0.04 mg/dL
  Serum Creatinine, Mean: 2.24 mg/dL
[2]; 40/80 mg QD, Month 6
  Serum Creatinine, Change from Baseline: 0.06 mg/dL
  Serum Creatinine, Mean: 2.26 mg/dL
  Serum creatinine change from Baseline, LS mean: 0.07 mg/dL
  Serum creatinine change from Baseline, LS mean difference from placebo group: -0.08 mg/dL
[2]; 40/80 mg QD, Month 9
  Serum Creatinine, Change from Baseline: 0.01 mg/dL
  Serum Creatinine, Mean: 2.22 mg/dL
[2]; 40/80 mg QD, Month 12
  Serum Creatinine, Change from Baseline: 0.19 mg/dL
  Serum Creatinine, Mean: 2.40 mg/dL
  Serum creatinine change from Baseline, LS mean: 0.23 mg/dL
  Serum creatinine change from Baseline, LS mean difference from placebo group: 0.04 mg/dL
[2]; 40/80 mg QD
  mean sCr: increased
  changes in sCr: minimal changes
  change in sCr over time compared with placebo: small favorable trend
  change in sCr over time compared to placebo: small favorable trend
[2]; 40/80 mg, prior and/or current use of ARB
  changes in mean sCr levels: minimal changes or a slight improvement
[2]; 40/80 mg, subjects with moderate renal impairment
  changes in mean sCr levels: small increases
[3]
  orally administered febuxostat eliminated in the urine as unchanged drug: < 4%
